Data reported in patent EP4509511A1, “SUBSTITUTED SPIRO-ISOXAZOLINYL LACTAMS, SALTS THEREOF AND THEIR USE AS HERBICIDALLY ACTIVE SUBSTANCES” (Bayer Aktiengesellschaft, priority 2023, dated 2025).

What was measured:
ECHCG [1] = experiment: Herbicidal pre-emergence action - Part I; type: in vivo, Echinochloa crus-galli; details: visual grading after ca. 3 weeks vs untreated controls
Excerpt: (§1) Seeds of mono- and dicotyledonous weed plants were sown in plastic pots (double sowings with one species of mono- and one species of dicotyledonous weed plants per pot), in sandy loam, and covered with soil. The compounds according to the invention, formulated in the form of wettable powders (WP) or as emulsifiable concentrates (EC), were applied to the surface of the covering soil as aqueous suspension or emulsion, with the addition of 0.5% of an additive, at an application rate of 600 1 of water per hectare (converted). Following treatment, the pots were placed in a greenhouse and kept under optimum growth conditions for the test plants. The visual grading of the damage to the test plants was carried out after ca. 3 weeks in comparison to untreated controls (herbicidaleffectinpercent(%):100%effect=plantshavediedoff,0%effect=ascontrolplants). [formula]
(§2) Tables A1 to A12, below, show the effects of selected compounds of the general formula (I) according to table 1 on various harmful plants and an application rate corresponding to 1280 g/ha or below obtained by the experimental procedure mentioned above. Table A1: pre-emergence activity at 1280g/ha against ABUTH in %

AMARE [2] = experiment: Herbicidal pre-emergence action - Part I; type: in vivo, Amaranthus retroflexus; details: visual grading after ca. 3 weeks vs untreated controls
Excerpt: as §1, §2

STEME [3] = experiment: Herbicidal post-emergence action - Part I; type: in vivo, Stellaria media; details: one-leaf stage, rated visually after about 3 weeks vs untreated controls
Protocol: (§3) Seeds of mono- and dicotyledonous weed plants were placed in plastic pots in sandy loam soil (doubly sown with in each case one species of mono- or dicotyledonous weed plants per pot), covered with soil and cultivated in a greenhouse under controlled growth conditions. 2 to 3 weeks after sowing, the test plants were treated at the one-leaf stage. The compounds of the invention, formulated in the form of wettable powders (WP) or as emulsion concentrates (EC), were applied onto the green parts of the plants as aqueous suspension or emulsion with addition of 0.5% additive at a water application rate of 600 liters per hectare (converted). After the test plants had been kept in the greenhouse under optimum growth conditions for about 3 weeks, the activity of the preparations was rated visually in comparison to untreated controls. For example, 100% activity = the plants have died, 0% activity = like control plants. Tables B1 to B12, below, show the effects of selected compounds of the general formula (I) according to table 1 on various harmful plants and an application rate corresponding to 1280 g/ha or below obtained by the experimental procedure mentioned above. Table B1a: post-emergence activity at 1280g/ha against ABUTH in %

DIGSA = experiment: Herbicidal pre-emergence action - Part I; type: in vivo, Digitaria sanguinalis; details: visual grading after ca. 3 weeks vs untreated controls
Excerpt: as §1, §2

AMARE [4] = experiment: Herbicidal post-emergence action - Part I; type: in vivo, Amaranthus retroflexus; details: 1280 g/ha, one-leaf stage, rated visually after about 3 weeks vs untreated controls
Protocol: as §3

KCHSC [5] = experiment: Herbicidal pre-emergence action - Part I; type: in vivo, Kochia scoparia; details: Table A10a, 1280 g/ha, visual grading after ca. 3 weeks vs untreated controls
Excerpt: as §1, §2

POAAN [6] = experiment: Herbicidal pre-emergence action - Part I; type: in vivo, Poa annua; details: visual grading after ca. 3 weeks vs untreated controls
Excerpt: as §1, §2

SETVI [7] = experiment: Herbicidal pre-emergence action - Part I; type: in vivo, Setaria viridis; details: visual grading after ca. 3 weeks vs untreated controls
Excerpt: as §1, §2

STEME [8] = experiment: Herbicidal pre-emergence action - Part I; type: in vivo, Stellaria media; details: visual grading after ca. 3 weeks vs untreated controls
Excerpt: as §1, §2

MATIN [9] = experiment: Herbicidal pre-emergence action - Part I; type: in vivo, Matricaria inodora; details: 1280 g/ha, visual grading after ca. 3 weeks vs untreated controls
Excerpt: as §1, §2

POLCO = experiment: Herbicidal post-emergence action - Part II; type: in vivo, Polygonum convolvulus; details: 20 g/ha; Table E6
Excerpt: (§4) Seeds of mono- and dicotyledonous weed plants and crop plants were sown, in plastic or organic planting pots, in sandy loam, covered with soil and grown in a greenhouse under controlled growth conditions. 2 to 3 weeks after sowing, the test plants were sprayed in the single-leaf stage. The compounds according to the invention, formulated in form of wettable powders (WP) or as emulsifiable concentrates (EC), were sprayed onto the green plant parts as aqueous suspension or emulsion, with the addition of 0.5% of an additive, at an application rate of 600 1 of water/ha (converted). The test plants were placed in the greenhouse for ca. 3 weeks under optimum growth conditions, and then the effect of the preparations was assessed visually in comparison with untreated controls (herbicidal effect in percent (%): 100% effect = plants have died off, 0% effect = as control plants). Tables E1 to E10 below show the effects of selected compounds of the general formula (I) according to table 1 on various harmful plants and an application rate corresponding to 320 g/ha or below obtained by the experimental procedure mentioned above. Table E1a: post-emergence activity at 5g/ha against ABUTH in %

MATIN [10] = experiment: Herbicidal post-emergence action - Part II; type: in vivo, Matricaria inodora; details: 20 g/ha; Table E4b
Excerpt: as §4

PHBPU = experiment: Herbicidal post-emergence action - Part II; type: in vivo, Pharbitis purpurea
Excerpt: as §4

TRZAS = experiment: Post-emergence effects on crop plants; type: in vivo, Triticum aestivum; details: crop plant
Excerpt: as §4, with “F1” for “E1”, “F5” for “E10”, “crop” for “harmful”, “[…]:” for “E1a:”, “ZEAMX” for “ABUTH”

VIOTR = experiment: Herbicidal post-emergence action - Part II; type: in vivo, Viola tricolor; details: 20 g/ha; Table E9b
Excerpt: as §4

VERPE [11] = experiment: Herbicidal post-emergence action - Part II; type: in vivo, Veronica persica; details: 20 g/ha; Table E8b
Excerpt: as §4

ABUTH = experiment: Herbicidal post-emergence action - Part II; type: in vivo, Abutilon theophrasti
Excerpt: as §4

AMARE [12] = experiment: Herbicidal post-emergence action - Part II; type: in vivo, Amaranthus retroflexus
Excerpt: as §4

ZEAMX = experiment: Post-emergence effects on crop plants; type: in vivo, Zea mays; details: crop plant
Excerpt: as §4, with “F1” for “E1”, “F5” for “E10”, “crop” for “harmful”, “[…]:” for “E1a:”, “ZEAMX” for “ABUTH”

LOLRI = experiment: Herbicidal pre-emergence action - Part I; type: in vivo, Lolium rigidum; details: 1280 g/ha, visual grading after ca. 3 weeks vs untreated controls
Excerpt: as §1, §2

KCHSC [13] = experiment: Herbicidal post-emergence action - Part I; type: in vivo, Kochia scoparia; details: 1280 g/ha, one-leaf stage, rated visually after about 3 weeks vs untreated controls
Protocol: as §3

POAAN [14] = experiment: Herbicidal post-emergence action - Part I; type: in vivo, Poa annua; details: 1280 g/ha, one-leaf stage, rated visually after about 3 weeks vs untreated controls
Protocol: as §3

VERPE [15] = experiment: Herbicidal post-emergence action - Part I; type: in vivo, Veronica persica; details: 1280 g/ha, one-leaf stage, rated visually after about 3 weeks vs untreated controls
Protocol: as §3

SETVI [16] = experiment: Herbicidal post-emergence action - Part I; type: in vivo, Setaria viridis; details: 1280 g/ha, one-leaf stage, rated visually after about 3 weeks vs untreated controls
Protocol: as §3

ECHCG [17] = experiment: Herbicidal post-emergence action - Part I; type: in vivo, Echinochloa crus-galli; details: one-leaf stage, rated visually after about 3 weeks vs untreated controls
Protocol: as §3

SETVI [18] = experiment: Herbicidal post-emergence action - Part II; type: in vivo, Setaria viridis; details: 20 g/ha; Table E7b
Excerpt: as §4

SMILES	pre-emergence activity at 1280g/ha against ECHCG in % (ECHCG [1]) [%]	pre-emergence activity at 1280g/ha against AMARE in % (AMARE [2]) [%]	pre-emergence activity at 1280g/ha against DIGSA in % (DIGSA) [%]	post-emergence activity at 1280g/ha against AMARE in % (AMARE [4]) [%]	pre-emergence activity at 1280g/ha against KCHSC in % (KCHSC [5]) [%]	pre-emergence activity at 320g/ha and against POAAN in % (POAAN [6]) [%]	pre-emergence activity at 1280g/ha and against POAAN in % (POAAN [6]) [%]	pre-emergence activity at 1280g/ha and against SETVI in % (SETVI [7]) [%]	pre-emergence activity at 320g/ha against STEME in % (STEME [8]) [%]	pre-emergence activity at 1280g/ha against STEME in % (STEME [8]) [%]	pre-emergence activity at 1280g/ha against MATIN in % (MATIN [9]) [%]	post-emergence activity against MATIN (MATIN [10]) [%]	post-emergence activity against PHBPU (PHBPU; 5 g/ha, Table E5a) [%]	post-emergence activity against PHBPU (PHBPU; 20 g/ha, Table E5b) [%]	post-emergence activity against TRZAS (TRZAS; 5 g/ha, Table F2a) [%]	post-emergence activity against VIOTR (VIOTR) [%]	post-emergence activity against VERPE (VERPE [11]) [%]	post-emergence activity against ABUTH (ABUTH; 20 g/ha, Table E1b) [%]	post-emergence activity against AMARE (AMARE [12]; 5 g/ha, Table E2a) [%]	post-emergence activity against AMARE (AMARE [12]; 20 g/ha, Table E2b) [%]	other results
O=C1N(Cc2c(F)cccc2F)CCC12CC(c1ccccc1F)=NO2 (racemic) [Compound I-27, 7-(2,6-Difluorobenzyl)-3-(2-fluorophenyl)-1-oxa-2,7-diazaspiro[4.4]non-2-en-6-one]	100	90	90	90	90	100	100	90	90	90	90										pre-emergence activity at 320g/ha against AMARE in % (AMARE [2]; 320 g/ha): 90%; post-emergence activity at 320g/ha against STEME in % (STEME [3]; 320 g/ha): 90%; post-emergence activity at 1280g/ha against STEME in % (STEME [3]; 1280 g/ha): 90%
COC(=O)CN1CCCC2(CC(c3cc(-n4c(=O)cc(C(F)(F)F)n(C)c4=O)c(F)cc3Cl)=NO2)C1=O (racemic) [Compound I-57]												100	100	100	20	100	100	100	100	100	post-emergence activity against POLCO (POLCO): 100%; post-emergence activity against TRZAS (TRZAS; 20 g/ha, Table F2b): 20%; post-emergence activity against ZEAMX (ZEAMX; 5 g/ha, Table F1a): 20%; post-emergence activity against ZEAMX (ZEAMX; 20 g/ha, Table F1b): 20%
Cc1ccsc1C1=NOC2(CCN(Cc3ccccc3F)C2=O)C1 (racemic) [Compound I-17, 7-(2-Fluorobenzyl)-3-(3-methyl-2-thienyl)-1-oxa-2,7-diazaspiro[4.4]non-2-en-6-one]	90	90					100	100	90	100	90										pre-emergence activity at 1280g/ha against LOLRI in % (LOLRI): 100%; post-emergence activity at 1280g/ha against KCHSC in % (KCHSC [13]): 90%; pre-emergence activity at 80g/ha against STEME in % (STEME [8]; 80 g/ha): 90%
Cc1ccsc1C1=NOC2(CCCN(Cc3cccc(F)c3F)C2=O)C1 (racemic) [Compound I-3, 7-(2,3-Difluorobenzyl)-3-(3-methyl-2-thienyl)-1-oxa-2,7-diazaspiro[4.5]-dec-2-en-6-one]	100	90	100	90	90	100	100	100	90	90	90										post-emergence activity at 1280g/ha against POAAN in % (POAAN [14]): 90%; pre-emergence activity at 320g/ha against ECHCG in % (ECHCG [1]; 320 g/ha): 100%; pre-emergence activity at 320g/ha against DIGSA in % (DIGSA; 320 g/ha): 90%; post-emergence activity at 1280g/ha against VERPE in % (VERPE [15]): 90%; pre-emergence activity at 1280g/ha against LOLRI in % (LOLRI): 100%; post-emergence activity at 1280g/ha against SETVI in % (SETVI [16]): 90%; post-emergence activity at 1280g/ha against KCHSC in % (KCHSC [13]): 90%; pre-emergence activity at 320g/ha and against SETVI in % (SETVI [7]; 320 g/ha): 100%; post-emergence activity at 320g/ha against ECHCG in % (ECHCG [17]; 320 g/ha): 90%; post-emergence activity at 1280g/ha against ECHCG in % (ECHCG [17]): 90%
Cn1c(C(F)(F)F)cc(=O)n(-c2cc(C3=NOC4(CCCNC4=O)C3)c(Cl)cc2F)c1=O (racemic) [Compound I-67]												100	100	100	20	100	80	100	100	100	post-emergence activity against SETVI (SETVI [18]): 80%; post-emergence activity against ABUTH (ABUTH; 5 g/ha, Table E1a): 80%; post-emergence activity against ZEAMX (ZEAMX; 5 g/ha, Table F1a): 20%
Cc1ccccc1CN1CCCC2(CC(c3sccc3C)=NO2)C1=O (racemic) [Compound I-4, 7-(2-Methylbenzyl)-3-(3-methyl-2-thienyl)-1-oxa-2,7-diazaspiro[4.5]dec-2-en-6-one]				90		100	100	90													post-emergence activity at 1280g/ha against POAAN in % (POAAN [14]): 90%; post-emergence activity at 1280g/ha against VERPE in % (VERPE [15]): 90%; post-emergence activity at 1280g/ha against ECHCG in % (ECHCG [17]): 90%
